From US12180226B2, “Spirotricycle RIPK1 inhibitors and methods of uses thereof” (Merck Sharp & Dohme LLC, priority 2021, dated 2024)
Structures can show the parent of a compound that is named as a salt.

target: RIPK1 (recombinant GST-RIPK1 kinase domain, residues 1-327) (Homo sapiens (Human), UniProt Q13546); assay: RIPK1-ADP-Glo Enzymatic Assay; format: biochemical; conditions: ADP-Glo; 25 nM GST-RIPK1, 300 μM ATP; assay lower limit ~25 nM; read-out: RIPK1 V0 Ec50
How it was run: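 Inhibition of ADP formation was measured after compound and enzyme (25 nM) were pre-incubated for 30 minutes at ambient temperature and the kinase reaction ran for 150 minutes at 300 μM ATP with dephosphorylated MBP substrate. EC50 values come from ten-point curves fitted non-linearly.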

RIPK1 (recombinant GST-RIPK1 kinase domain, residues 1-327), sequence (Q13546 1-327): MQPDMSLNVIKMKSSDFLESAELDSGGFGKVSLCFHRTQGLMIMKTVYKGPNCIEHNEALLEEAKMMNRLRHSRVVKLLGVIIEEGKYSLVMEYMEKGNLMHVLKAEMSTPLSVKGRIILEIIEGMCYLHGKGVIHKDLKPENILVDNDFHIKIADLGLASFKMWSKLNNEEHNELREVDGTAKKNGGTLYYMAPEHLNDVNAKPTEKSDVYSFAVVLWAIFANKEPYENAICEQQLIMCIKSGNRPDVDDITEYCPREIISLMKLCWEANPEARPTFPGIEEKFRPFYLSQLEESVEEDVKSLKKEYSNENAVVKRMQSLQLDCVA

Row | EC50 [nM] | SMILES
1 | 25 | COc1cccc([C@@H]2CC[C@H]3OC4(CCN(c5ccc(C#N)c6ncnn56)CC4)C(=O)N32)c1 [Example 20.2, 5-[(5′S,7a′R)-5′-(3-methoxyphenyl)-3′-oxotetrahydro-1H,3′H-spiro[piperidine-4,2′-pyrrolo[2,1-b][1,3]oxazol]-1-yl][1,2,4]triazolo[1,5-a]pyridine-8-carbonitrile]
2 | < 25 | N#Cc1ccc(N2CCC3(CC2)OC2CCC(c4cnccn4)N2C3=O)n2ncnc12 (stereo not drawn) [Example 4.141, 5-[3′-oxo-5′-(pyrazin-2-yl)tetrahydro-1H,3′H-spiro[piperidine-4,2′-pyrrolo[2,1-b] [1,3]oxazol]-1-yl][1,2,4]triazolo[1,5-a] pyridine-8-carbonitrile]
3 | 295 | O=C1N2[C@H](CC13CCN(c1cc(F)ccn1)CC3)OC[C@H]2c1ccccc1 [Example 11.2, (3′R,7a′S)-1-(4-fluoropyridin-2-yl)-3′-phenyltetrahydro-5′H-spiro[piperidine-4,6′-pyrrolo[2,1-b][1,3]oxazol]-5′-one]
4 | < 25 | O=C1N2[C@@H](CC[C@H]2c2cccc(F)c2)OC12CCN(c1ccnc3c(F)cnn13)CC2 [Example 4.129, (5′S,7a′R)-5′-(3-fluorophenyl)-1-(3-fluoropyrazolo[1,5-a]pyrimidin-7-yl)tetrahydro-3′H-spiro[piperidine-4,2′-pyrrolo[2,1-b] [1,3]oxazol]-3′-one]
5 | < 25 | CC(=O)c1ccc(N2CCC3(CC2)O[C@@H]2CC[C@@H](c4ccccc4)N2C3=O)n2ncnc12 [Example 4.270, (5′S,7a′R)-1-(8-acetyl[1,2,4]triazolo[1,5-a]pyridin-5-yl)-5′-phenyltetrahydro-3′H-spiro[piperidine-4,2′-pyrrolo[2,1-b] [1,3]oxazol]-3′-one]
6 | 166 | O=C1N2[C@@H](CC[C@H]2c2ccccc2)OC12CCN(c1cc(F)c(O)cn1)CC2 [Example 4.209, (5′S,7a′R)-1-(4-fluoro-5-hydroxypyridin-2-yl)-5′-phenyltetrahydro-3′H-spiro[piperidine-4,2′-pyrrolo[2,1-b] [1,3]oxazol]-3′-one]
7 | < 25 | O=C(c1ccco1)N1CCC2(CC1)O[C@@H]1CC[C@@H](c3cc(F)cc(F)c3)N1C2=O [Example 5.50, (5′S,7a′R)-5′-(3,5-difluoro-phenyl)-1-(furan-2-carbon-yl)tetrahydro-3′H-spiro [piperidine-4,2′-pyrrolo-[2,1-b]oxazol]-3′-one]
8 | 154 | COc1ncccc1C(=O)N1CCC2(CC1)O[C@@H]1CC[C@@H](c3cc(F)cc(F)c3)N1C2=O [Example 6.18, (5′S,7a′R)-5′-(3,5-difluorophenyl)-1-(2-methoxypyridine-3-carbonyl)tetrahydro-3′H-spiro[piperidine-4,2′-pyrrolo[2,1-b] [1,3]oxazol]-3′-one]
9 | < 25 | O=C(c1c(F)cc(F)cc1F)N1CCC2(CC1)O[C@@H]1CC[C@@H](c3cc(F)cc(F)c3)N1C2=O [Example 5.2, (5′S,7a′R)-5′-(3,5-difluoro-phenyl)-1-(2,4,6-trifluoro-benzene-1-carbonyl)tetra-hydro-3′H-spiro[piperi-dine-4,2′-pyrrolo[2,1-b] [1,3]oxazol]-3′-one]
10 | < 25 | N#Cc1cncc([C@@H]2CC[C@H]3OC4(CCN(c5ccnc6c(F)cnn56)CC4)C(=O)N32)c1 [Example 4.127, 5-[(5′S,7a′R)-1-(3-fluoropyrazolo[1,5-a]pyrimidin-7-yl)-3′-oxotetrahydro-3′H-spiro[piperidine-4,2′-pyrrolo[2,1-b] [1,3]oxazol]-5′-yl]pyridine-3-carbonitrile]
11 | < 25 | CC1CC2(CCN1c1ncnc3ccnn13)O[C@@H]1CC[C@@H](c3cc(F)cc(F)c3)N1C2=O (stereo partly drawn) [Example 4.213, (5′S,7a′R)-5′-(3,5-difluorophenyl)-2-methyl-1-(pyrazolo[1,5-a] [1,3,5]triazin-4-yl)tetrahydro-3′H-spiro[piperidine-4,2′-pyrrolo[2,1-b] [1,3]oxazol]-3′-one]
12 | 48.4 | CC(C)N1Cc2nc(N3CCC4(CC3)O[C@@H]3CC[C@@H](c5ccccc5)N3C4=O)ccc2C1=O [Example 4.195, (5′S,7a′R)-1-[5-oxo-6-(propan-2-yl)-6,7-dihydro-5H-pyrrolo[3,4-b]pyridin-2-yl]-5′-phenyltetrahydro-3′H-spiro[piperidine-4,2′-pyrrolo[2,1-b] [1,3]oxazol]-3′-one]
13 | 229 | O=C1N2[C@@H](CC[C@H]2c2ccccc2)OC12CCN(c1cc(-n3ccnc3)ccn1)CC2 [Example 11.21, (5′S,7a′R)-1-[4-(1H-imidazol-1-yl)pyridin-2-yl]-5′-phenyltetrahydro-3′H-spiro[piperidine-4,2′-pyrrolo[2,1-b][1,3]oxazol]-3′-one]
14 | < 25 | N#Cc1ccc(N2CCC3(CC2)O[C@@H]2CC[C@@H](c4cccc(F)c4)N2C3=O)n2ncnc12 [Example 4.259, 5-[(5′S,7a′R)-5′-(3-fluorophenyl)-3′-oxotetrahydro-1H,3′H-spiro[piperidine-4,2′-pyrrolo[2,1-b] [1,3]oxazol]-1-yl][1,2,4]triazolo[1,5-a] pyridine-8-carbonitrile]
15 | < 25 | O=C1N2[C@@H](CC[C@H]2c2ccccc2)OC12CCN(c1cc(-c3ccsc3)ccn1)CC2 [Example 4.170, (5′S,7a′R)-5′-phenyl-1-[4-(thiophen-3-yl)pyridin-2-yl]tetrahydro-3′H-spiro[piperidine-4,2′-pyrrolo[2,1-b] [1,3]oxazol]-3′-one]
16 | < 25 | CC(C)Oc1cc(N2CCC3(CC2)O[C@@H]2CC[C@@H](c4cc(F)cc(F)c4)N2C3=O)ncc1C#N [Example 4.41, 6-[(5′S,7a′R)-5′-(3,5-difluorophenyl)-3′-oxotetrahydro-1H,3′H-spiro[piperidine-4,2′-pyrrolo[2,1-b] [1,3]oxazol]-1-yl]-4-[(propan-2-yl)oxy]pyridine-3-carbonitrile]
17 | 234 | N#Cc1cccc(CN2CCC3(CC2)O[C@@H]2CC[C@@H](c4cc(F)cc(F)c4)N2C3=O)c1 [Example 22.6, 3-{[(5′S,7a′R)-5′-(3,5-difluorophenyl)-3′-oxotetrahydro-1H,3′H-spiro[piperidine-4,2′-pyrrolo[2,1-b][1,3]oxazol]-1-yl]methyl}benzonitrile]
18 | 49 | COc1ccc([C@@H]2CC[C@H]3OC4(CCN(C(=O)c5ccccc5)CC4)C(=O)N32)cc1 [Example 17.8, (5′S,7a′R)-1-benzoyl-5′-(4-methoxyphenyl)tetrahydro-3′H-spiro[piperidine-4,2′-pyrrolo[2,1-b]oxazol]-3′-one]
19 | 924 | Cc1nnc(C(=O)N2CCC3(CC2)O[C@@H]2CC[C@@H](c4cc(F)cc(F)c4)N2C3=O)o1 [Example 5.76, (5′S,7a′R)-5′-(3,5-difluoro-phenyl)-1-(5-methyl-1,3,4-oxadiazole-2-carbonyl)-tetrahydro-3′H-spiro[piperi-dine-4,2′-pyrrolo[2,1-b] [1,3]oxazol]-3′-one]
20 | < 25 | O=C1N2[C@@H](CC[C@H]2c2ccccc2)OC12CCN(c1ncnc3ccsc13)CC2 [Example 4.37, (5′S,7a′R)-5′-phenyl-1-(thieno[3,2-d]pyrimidin-4-yl)tetrahydro-3′H-spiro[piperidine-4,2′-pyrrolo[2,1-b] [1,3]oxazol]-3′-one]
21 | 138 | Cc1cc(C(=O)N2CCC3(CC2)O[C@@H]2CC[C@@H](c4cc(F)cc(F)c4)N2C3=O)ccc1C#N [Example 5.18, 4-((5′S,7a′R)-5′-(3,5-difluorophenyl)-3′-oxo-tetrahydro-3′H-spiro [piperidine-4,2′-pyrrolo-[2,1-b]oxazole]-1-carbon-yl)-2-methylbenzonitrile]
22 | < 25 | O=C1N2[C@@H](CC[C@H]2c2cc(F)cc(F)c2)OC12CCN(c1ccc(F)c3ccnn13)CC2 [Example 16.1, (5′S,7a′R)-5′-(3,5-difluorophenyl)-1-(4-fluoropyrazolo[1,5-a]pyridin-7-yl)tetrahydro-3′H-spiro[piperidine-4,2′-pyrrolo[2,1-b]oxazol]-3′-one, TFA salt]
23 | 57.8 | O=C1N2[C@@H](CC[C@H]2c2ccccc2)OC12CCN(c1cnc(-c3ncco3)cn1)CC2 [Example 21.14, (5′S,7a′R)-1-[5-(1,3-oxazol-2-yl)pyrazin-2-yl]-5′-phenyltetrahydro-3′H-spiro[piperidine-4,2′-pyrrolo[2,1-b][1,3]oxazol]-3′-one]
24 | 54.3 | N#Cc1ccc(N2CC3(C2)O[C@@H]2CC[C@@H](c4ccccc4)N2C3=O)n2ncnc12 [Example 13.23, 5-((5′S,′7a′R)-3′-oxo-5′-phenyltetrahydro-3′H-spiro[azetidine-3,2′-pyrrolo[2,1-b]oxazol]-1-yl)-[1,2,4]triazolo[1,5-a]pyridine-8-carbonitrile, TFA salt]
25 | 228 | CC1(C)Cc2cccc(C(=O)N3CCC4(CC3)O[C@@H]3CC[C@@H](c5cc(F)cc(F)c5)N3C4=O)c2O1 [Example 6.32, (5′S,7a′R)-5′-(3,5-difluorophenyl)-1-(2,2-dimethyl-2,3-dihydro-1-benzo-furan-7-carbonyl)-tetrahydro-3′H-spiro [piperidine-4,2′-pyrrolo[2,1-b][1,3]oxazol]-3′-one]
26 | < 25 | N#Cc1cc(N2CCC3(CC2)O[C@@H]2CC[C@@H](c4cc(F)cc(F)c4)N2C3=O)ncn1 [Example 4.4, 6-[(5′S,7a′R)-5′-(3,5-difluorophenyl)-3′-oxotetrahydro-1H,3′H-spiro[piperidine-4,2′-pyrrolo[2,1-b] [1,3]oxazol]-1-yl]pyrimidine-4-carbonitrile]

Row | SMILES | EC50 [nM]
27 | CSc1nc(N2CCC3(CC2)O[C@@H]2CC[C@@H](c4cc(F)cc(F)c4)N2C3=O)n2nccc2n1 [Example 4.86, (5′S,7a′R)-5′-(3,5-difluorophenyl)-1-(2-(methylthio)pyrazolo [1,5-a][1,3,5]triazin-4-yl)tetrahydro-3′H-spiro[piperidine-4,2′-pyrrolo[2,1-b]oxazol]-3′-one, TFA salt] | 269
